Structures are written as SMILES.

The data set can be described thus: Single-dose intravenous and oral pharmacokinetic study in mice. Format: in vivo, Balb/c mice. To be noted: mouse; male Balb/c mice, PO 50 mg/kg, plasma. As for the experimental part: Twenty-seven male Balb/c mice were randomly divided into 3 groups, 9 mice in each group. Group 1: mice received an intravenous (IV) dose of Compound 1 at 5 mg/kg with a dosing volume of 5 mL/kg. Blood samples were collected at 0.083, 0.25, 0.5, 1, 2, 4, 6, 8, and 24 hours post-dose using a staggered sampling method. Group 2: mice received an oral (gavage) dose of Compound 1 at 50 mg/kg with a dosing volume of 10 mL/kg. Blood samples were collected at 0.25, 0.5, 1, 2, 4, 6, 8, and 24 hours post-dose using a staggered sampling method. Group 3: mice received an oral (gavage) dose of palbociclib at 50 mg/kg with a dosing volume of 10 mL/kg. Blood samples were collected at 1, 3, 4, 6, 8, 10, 12, and 24 hours post-dose using a staggered sampling method. For each group, 3 samples were collected at each time point. Plasma was separated by centrifugation and stored at −70° C. The concentrations of Compound 1 or palbociclib in plasma were measured using LC-MS/MS.

On to `CC(=O)c1c(C)c2cnc(Nc3ccc(N4CCNCC4)cn3)nc2n(C2CCCC2)c1=O` [palbociclib, reference compound], for which the AUC(0-t) (usually the area under the concentration-time curve up to a stated or last time point) stood at 18300 ng·h/mL, the Cmax (usually the highest concentration seen after dosing) was 1320 ng/mL, the Tmax (usually the time from dosing to the highest level) came to 8 h and the half-life (usually the time in which the quantity being followed falls by half) was 7.64 h.

(Values after US20260207604A1, “COMPOUND AND USE THEREOF” (ONQUALITY PHARMACEUTICALS CHINA LTD., priority 2022, published 2026).)
